The values below come from patent US20140213559A1, “COMPOSITIONS AND TREATMENTS FOR DYSTROPHIES” (MD PHARMA AB, priority 2011, published 2014).

Holding throughout (format): in vivo, mouse
The subject of series [1] is autophagy-related genes (LC3B, Cathepsin L, Lamp2a, Gabarapl1, Atg4b, Vps34, Beclin). The series is described as follows: Expression of autophagy-related genes in quadriceps muscle after systemic 3-MA injection (qRT-PCR, Western blot, immunofluorescence). As to conditions: dy3K/dy3K mice, 3-MA 15 mg/kg intraperitoneal at 2.5 and 3.5 weeks, 14 days post-injection. As for the experimental part:
(§1) Systemic administration was performed by intraperitoneal injection of 3-MA (15 mg/kg) into dy3K/dy3K mice and control littermates at the age of 2.5 weeks and 3.5 weeks. Mice were sacrificed 14 days after injection and quadriceps and tibialis anterior muscles were processed for morphometric analysis, immunofluorescence experiments, qRT-PCR or Western blot analysis. Prior to the euthanasia, an exploratory locomotion test was performed.
Total RNA was extracted from 10 mg quadriceps muscle of 6 dy3K/dy3K mice (3.5-week-old) and 6 WT littermates and 5 WT and 5 dy3K/dy3K mice treated with 3-MA using RNeasy mini kit (Qiagen) including an initial step of proteinase K digestion (Fermentas, 240 ng/μl). […] Quantitative PCRs were performed in triplicate with the Maxima SYBR Green qPCR Master Mix (Fermentas). Expression of target and reference genes was monitored using a real-time qRT-PCR method (Light Cycler, Roche) with the previously described primers for the autophagic genes LC3B, Cathepsin L, Lamp2a, Gabarapl1, Atg4b, Vps34 and Beclin (8). The amplification efficiency for each primer pair was evaluated by amplification of serially diluted template cDNAs ([…]). Efficiency corrected RNA levels (in arbitrary units) were calculated by using the formula E^−Ct. Expression levels were then calculated relative to the endogenous control gene GAPDH and relative to wild-type quadriceps. […]
A general note: Quantitative PCR measures a nucleic acid by following its amplification.

In a further series the test system is wild-type mice. The series is described as follows: Hind leg paralysis observation in injected wild-type mice. Particulars: 3-MA injected wild-type mice. As for the experimental part:
as §1

In series [2] the test system is dy3K/dy3K mice. Nature of the series: Body weight measurement. Particulars: 3-MA treated vs non-injected dy3K/dy3K mice, 4-week-old. As for the experimental part: as §1
Series [3] has as its system dy3K/dy3K mice. The series is described as follows: Peripheral neuropathy / hind leg paralysis observation. As to conditions: 3-MA treated dy3K/dy3K mice. Here is the method: as §1
Series [4] deals with dy3K/dy3K mice. Nature of the series: Histology, immunofluorescence and morphometric analysis of muscle after systemic 3-MA injection. Here is the method:
Systemic administration was performed by intraperitoneal injection of 3-MA (15 mg/kg) into dy3K/dy3K mice and control littermates at the age of 2.5 weeks and 3.5 weeks. […] Prior to the euthanasia, an exploratory locomotion test was performed.
Quadriceps and tibialis anterior muscles from wild-type, dy3K/dy3K and injected mice (n=6 for each group) were rapidly dissected after euthanasia and frozen in OCT (Tissue Tek) in liquid nitrogen. Serial sections of […] were either stained with hematoxylin and eosin or processed for immunofluorescence experiments following standard procedures (20) with rabbit polyclonal antibodies directed against LC3B (1/100, #3868, Cell Signaling Technology), laminin γ1 chain (1/1000, #1083), laminin α4 chain (1/400, #1100) and […] (1/400, #1117) generously provided by Dr. T. Sasaki, rat monoclonal antibodies against laminin γ1 chain (1/200, MAB 1914, Chemicon) and tenascin-C (undiluted, MTn15), goat polyclonal antibody against collagen III (1/100, #1330, SouthernBiotech) and mouse monoclonal antibodies against caspase-3 (1/100, CPP32, BD Transduction Laboratory), embryonic myosin heavy chain (F1.652, Developmental Studies Hybridoma Bank) and MyoD (1/100, clone 5.8A Dako). For apoptotic myofiber detection, a TUNEL detection kit was used following instructions of the manufacturer (GenScript). Sections were analyzed using a Zeiss Axioplan fluorescence microscope. Images were captured using an ORCA 1394 ER digital camera with the Openlab 3 software.
Measurements were performed on whole quadriceps or tibialis anterior muscle sections from untreated wild-type and dy3K/dy3K, wild-type and dy3K/dy3K 3-MA injected animals (n=6 for each group). Tenascin-C and collagen III positive areas, eMHC positive fibers, caspase-3 positive fibers, TUNEL-positive myonuclei and fiber diameters were measured using the imageJ software. Minimal Feret's diameter was measured (41) for at least 1500 fibers for each mouse. The same number of fibers was used for quantification of fibers with centrally located nuclei. Wet quadriceps muscle weights were determined from 7 uninjected wild-type or dy3K/dy3K and 3-MA treated wild-type (n=4) and dy3K/dy3K (n=6) animals and correlated to body weight.

The next series has as its system Akt. The series is described as follows: Akt phosphorylation in quadriceps muscle, Western blot. Particulars: dy3K/dy3K quadriceps. Here is the method:
as §1
Isolated quadriceps muscles were obtained from 6 wild-type, 6 dy3K/dy3K mice (3.5 weeks of age) and 6 dy3K/dy3K mice 48 h or 14 days after 3-MA injection. Each sample was immediately frozen in liquid nitrogen and reduced to powder using a mortar. Protein extracts were obtained as previously described (16). A total of […] of denaturated protein was loaded on 10-20% acrylamide SDS-gels (Clearpage, CBS Scientific) and blotted onto nitrocellulose membranes (Hybond-C, Amersham) during 1.5 hour (Biorad). The membranes were blocked for one hour at RT in PBS, 0.01% Tween-20, 5% milk and incubated overnight at 4° C. with rabbit polyclonal antibodies directed against pAkt (Ser 473, 1/2000, #4060 or Thr 308, 1/1000, #2965, Cell Signaling Technology), Akt (1/1000, #4685, Cell Signaling Technology), Vps34 (1/200, V9764, Sigma) or LC3B (1/250, #2775, Cell Signaling Technology). […]

Series [5] relates to dy3K/dy3K mice. The series is described as follows: Survival curves. Particulars: two systemic injections of 3-MA, 22 days for non-treated. Here is the method: as §1
Death was monitored in 3-MA injected dy3K/dy3K mice (n=9). A survival curve was constructed using the GraphPad Prism 4 software.

For series [6], the system named is dy3K/dy3K mice. Nature of the series: Exploratory locomotion, open field test. As to conditions: 3-MA injected dy3K/dy3K mice, 14 days after injection, 5 min. Here is the method:
as §1
Exploratory locomotion was examined in an open field test. In each experiment, the mouse 14 days after 3-MA injection (n=11 for dy3K/dy3K and wild-type, respectively) was placed into a new cage and allowed to explore the cage for 5 min. The time that the mouse spent moving around was measured manually.

Setting [7] is: 3-MA injected dy3K/dy3K mice, quadriceps.
Where [8] appears, read: 3-MA injected vs non-injected dy3K/dy3K mice, quadriceps, 14 days post-injection.
Where [9] appears, read: 3-MA treated dy3K/dy3K mice, quadriceps, 14 days.

`Cn1cnc(N)c2ncnc1-2` [3-MA, 3-methyladenine]: in series [1], the “expression of the autophagy-related genes” value is given as “restored the expression of the autophagy-related genes to the basal level”. Moreover, the hind leg paralysis result in the series with wild-type mice was “not in 3-MA injected wild-type mice”. In addition, in the series on dy3K/dy3K mice [2], the body weight result is “weighed significantly more”. The “pathology of the peripheral nerve” value in the series on dy3K/dy3K mice [3] is listed as “did not appreciably improve”. Besides, the hind leg paralysis result in the series with dy3K/dy3K mice [3] (similar in non-treated dy3K/dy3K mice) was “transient hind leg paralysis often occurred in one leg”. In the series on dy3K/dy3K mice [4] (setting [7]), the “amount of MyoD1 positive nuclei” value is reported as “increased”, the “number of cells with centrally located nuclei” value is given as “slightly but significantly elevated” and the “proportion of fibers expressing eMHC” value is reported as “significantly increased”. In addition, the “ratio of quadriceps muscle wet weight per body weight” value in the series on dy3K/dy3K mice [4] (3-MA injected vs age-matched non-injected dy3K/dy3K mice) is “normalized”. Moreover, in the series on dy3K/dy3K mice [4] (setting [8]), the “Collagen III expression (fibrosis)” value is “reduced” and the “tenascin-C expression (fibrosis)” value is on record as “reduced”. In addition, the “proportion of TUNEL-positive myonuclei” value with dy3K/dy3K mice [4] (3-MA treated dy3K/dy3K animals, quadriceps) is listed as “significantly reduced”. In the series with dy3K/dy3K mice [4] (setting [9]), the “expression of laminin 132 chain” value is “near normal” and the “expression of laminin α4 chain” value was “near normal”. In the series with dy3K/dy3K mice [4] (dy3K/dy3K mice, 3-MA 15 mg/kg intraperitoneal at 2.5 and 3.5 weeks, 14 days post-injection), the muscle morphology result was “considerably improved muscle morphology”. The caspase-3 positive fibers result in the series on dy3K/dy3K mice [4] (dy3K/dy3K mice, forty-eight hours after 3-MA injection) is “same proportion as in non-injected dy3K/dy3K mice”. Also, the “proportion of caspase 3 positive fibers” value in the series with dy3K/dy3K mice [4] (dy3K/dy3K quadriceps, 14 days after injection) is listed as “significantly decreased”. For the same compound, the average fibre diameter result with dy3K/dy3K mice [4] (quadriceps, dy3K/dy3K mice upon 3-MA injection) is “increased”. Besides, the “fibre size distribution in quadriceps muscle” value in the series with dy3K/dy3K mice [4] (wild-type and dy3K/dy3K injected animals) is “significantly shifted towards larger fibres”. Also, the “Akt phosphorylation on threonine 308 and serine 473” value with Akt (48 h after injection) is recorded as “restored to wild-type levels”. The “Akt phosphorylation on threonine 308 and serine 473” value in the series on Akt (14 days after injection) is “restored to wild-type levels”. The compound also registered a median survival in the series on dy3K/dy3K mice [5] of 37 days. Besides, the “activity in an open field test (exploratory locomotion)” value with dy3K/dy3K mice [6] is “same level of activity as wild-type animals”.
